The values below come from patent US9758529B2, “Fused dihydro-4H-pyrazolo[5,1-C][1,4]oxazinyl compounds and analogs for treating CNS disorders” (Sunovion Pharmaceuticals Inc., priority 2015, dated 2017).

The assay has as its system mice. Nature of the assay: Neuropharmacological Assay (SmartCube). The format is in vivo. As to conditions: i.p. 15 min before behavioral test; 3 doses, most efficacious dose(s) presented.
For the compound `Cl.N[C@H](CC1CCC1)C1OCCn2nc3ccccc3c21` (stereo partly drawn) [Compound 41, (1R)-2-cyclobutyl-1-(3,4-dihydro-1H-[1,4]oxazino[4,3-b]indazol-1-yl)ethan-1-aminium], the “AD: ADHD (probability of class match)” value is listed as “+ (LOQ≦ + <5%)”, the “AG: analgesic (probability of class match)” value (from here on “AG: analgesic”) is recorded as “+ (LOQ≦ + <5%)”, the “AX: anxiolytic (probability of class match)” value (from here on “AX: anxiolytic”) is recorded as “+ (LOQ≦ + <5%)” and the “CE: cognitive enhancer (probability of class match)” value (shortened to “CE: cognitive enhancer”) is listed as “+ (LOQ≦ + <5%)”. Besides, the “DP: anti-depressant (probability of class match)” value (“DP: anti-depressant” below) is listed as “+ (LOQ≦ + <5%)”, the “HA: hallucinogen (probability of class match)” value (shortened to “HA: hallucinogen”) was “+ (LOQ≦ + <5%)”, the “MS: mood stabilizer (probability of class match)” value (from here on “MS: mood stabilizer”) was “+ (LOQ≦ + <5%)” and the “PS: anti-psychotic (probability of class match)” value (“PS: anti-psychotic” below) is reported as “+ (LOQ≦ + <5%)”. For the same compound, the “SD: sedative hypnotic (probability of class match)” value (from here on “SD: sedative hypnotic”) was “+ (LOQ≦ + <5%)”, the “UN: uncharacterized CNS activity (probability of class match)” value (from here on “UN: uncharacterized CNS activity”) is listed as “+ (LOQ≦ + <5%)” and the “XG: anxiogenic (probability of class match)” value (“XG: anxiogenic” for short) is “+ (LOQ≦ + <5%)”.
On to `Cl.NCC1OCCn2nc3ccsc3c21` (centres unmarked) [Compound 60, (6,7-dihydro-9H-thieno[3′,2′:3,4]pyrazolo[5,1-c][1,4]oxazin-9-yl)methanaminium chloride], for which the “AD: ADHD (probability of class match)” value is on record as “++ (5%≦ ++ <25%)”, the “AG: analgesic” value was “+ (LOQ≦ + <5%)”, the “AX: anxiolytic” value is reported as “+++ (25%≦ +++ <50%)” and the “CE: cognitive enhancer” value was “+ (LOQ≦ + <5%)”. The “DP: anti-depressant” value was “++ (5%≦ ++ <25%)”, the “HA: hallucinogen” value was “+ (LOQ≦ + <5%)”, the “MS: mood stabilizer” value is “+ (LOQ≦ + <5%)” and the “PS: anti-psychotic” value was “+ (LOQ≦ + <5%)”. Also, the “SD: sedative hypnotic” value is on record as “++ (5%≦ ++ <25%)”, the “UN: uncharacterized CNS activity” value is “+ (LOQ≦ + <5%)” and the “XG: anxiogenic” value was “+ (LOQ≦ + <5%)”.
Turning to `CCN(C)C[C@H]1OCCn2nc3ccccc3c21.Cl` [Compound 50, N—(((R)-3,4-dihydro-1H-[1,4]oxazino[4,3-b]indazol-1-yl)methyl)-N-methylethanaminium chloride], the “AD: ADHD (probability of class match)” value is reported as “++ (5%≦ ++ <25%)”, the “AG: analgesic” value is “+ (LOQ≦ + <5%)”, the “AX: anxiolytic” value is “+++ (25%≦ +++ <50%)” and the “CE: cognitive enhancer” value was “+ (LOQ≦ + <5%)”. Besides, the “DP: anti-depressant” value is reported as “++++ (50%≦ ++++)”, the “HA: hallucinogen” value is listed as “++ (5%≦ ++ <25%)”, the “MS: mood stabilizer” value is listed as “+ (LOQ≦ + <5%)” and the “PS: anti-psychotic” value is on record as “+ (LOQ≦ + <5%)”. In addition, the “SD: sedative hypnotic” value was “+ (LOQ≦ + <5%)”, the “UN: uncharacterized CNS activity” value is given as “+ (LOQ≦ + <5%)” and the “XG: anxiogenic” value is listed as “+ (LOQ≦ + <5%)”.
In the case of `CN1CC[C@H]1C1OCCn2nc3ccccc3c21` (stereo partly drawn) [Compound 65, ((2S)-2-(3,4-dihydro-1H-[1,4]oxazino[4,3-b]indazol-1-yl)-1-methylazetidin-1-ium chloride], the “AD: ADHD (probability of class match)” value is “+ (LOQ≦ + <5%)”, the “AG: analgesic” value is reported as “+++ (25%≦ +++ <50%)”, the “AX: anxiolytic” value is “++ (5%≦ ++ <25%)” and the “CE: cognitive enhancer” value is given as “++ (5%≦ ++ <25%)”. The “DP: anti-depressant” value is listed as “++ (5%≦ ++ <25%)”, the “HA: hallucinogen” value is recorded as “+ (LOQ≦ + <5%)”, the “MS: mood stabilizer” value is recorded as “+ (LOQ≦ + <5%)” and the “PS: anti-psychotic” value is “+ (LOQ≦ + <5%)”. Further, the “SD: sedative hypnotic” value is given as “++ (5%≦ ++ <25%)”, the “UN: uncharacterized CNS activity” value is listed as “+ (LOQ≦ + <5%)” and the “XG: anxiogenic” value is “++ (5%≦ ++ <25%)”.
